Read-outs that look alike come from different tables or passages of the source.
Columns and labels:
[1] = cited from earlier work; for absorption in the vitamin D producing range: approximately 295 to 315 nm
[2] = tested on: primary human keratinocytes; settings: De Haes et al. 2005; cited from earlier work
[3] = UV absorption spectra (absorbance range, maxima, critical wavelength) of UV filters and other ingredients; type: physicochemical; settings: over time under the sun

Molecule	absorption in the vitamin D producing range [1]	further results
O=C(c1ccc(O)cc1O)c1ccc(O)cc1O [2,2^1,4,4′-Tetrahydroxybenzophenone]	high percentage	
CCCCCOC(=O)c1ccc(N(C)C)cc1 [Padimate-A, amyl p-dimethylaminobenzoate]	high percentage	
CCCCC(CC)COC(=O)c1ccc(N(C)C)cc1 (centres unmarked) [Padimate-0, 2-ethylhexyl 4-dimethylaminobenzoate]	high percentage	
Cc1ccc(C=C2C(=O)C3(C)CCC2C3(C)C)cc1 (centres unmarked) [4-Methylbenzylidene camphor, 3-(4-methylbenzyliden)camphor]	high percentage	
COc1cc(O)c(C(=O)c2ccccc2)cc1S(=O)(=O)O [Sulisobenzone, 2-hydroxy-4-methoxybenzophenone-5-sulfonic acid]	minimal to somewhat moderate	
CCCCC(CC)COC(=O)c1ccccc1O (centres unmarked) [Octisalate, 2-ethylhexyl salicylate]	minimal to moderate	
C=C1/C(=C\C=C2/CCC[C@]3(C)[C@@H]([C@H](C)CCCC(C)(C)O)CC[C@@H]23)C[C@@H](O)C[C@@H]1O [1,25(OH)2D3, 1,25-dihydroxyvitamin D3]		protection against UVB-induced DNA damage [2]: protects
CCCCC(CC)COC(=O)c1ccc(Nc2nc(Nc3ccc(C(=O)NC(C)(C)C)cc3)nc(Nc3ccc(C(=O)OCC(CC)CCCC)cc3)n2)cc1 (centres unmarked) [Iscotrizinol, diethylhexyl butamido triazone]	high percentage	
CCCCC(CC)COc1ccc(-c2nc(-c3ccc(OC)cc3)nc(-c3ccc(OCC(CC)CCCC)cc3O)n2)c(O)c1 (centres unmarked) [Bemotrizinol, bis-ethylhexyloxyphenol methoxyphenyl triazine]	high percentage	
CCCCCCCCOc1ccc(C(=O)c2ccccc2)c(O)c1 [2-Hydroxy-4-(Octyloxy)Benzophenone]	high percentage	
COc1ccc(C(=O)c2ccc(OC)cc2O)c(O)c1 [2,2′-Dihydroxy-4,4′-dimethoxybenzophenone]	high percentage	
CCCCCCOC(=O)c1ccccc1C(=O)c1ccc(N(CC)CC)cc1O [Uvinul A Plus, diethylamino hydroxybenzoyl hexyl benzoate]	relative lack of absorption	
O=C(c1ccccc1)c1ccc(O)cc1O [2,4-Dihydroxybenzophenone]	high percentage	
4-Bis(polyethoxy)para-aminobenzoic acid polyethoxyethyl ester [PEG-25 PABA]	minimal absorption	
COc1ccc(C(=O)c2ccc(C)cc2)c(O)c1 [Mexenon, 2-hydroxy-4-methoxy-4′-methyl-benzophenone]	minimal to moderate	
CC(=O)C=CC=C1C2CCC(C2)C1(C)C (centres unmarked) [Digalloyl trioleate, 5-(3,3-Dimethyl 2 norbornyliden)-3penten-2-one]	high percentage	
CCCCC(CC)COC(=O)c1ccc(Nc2nc(Nc3ccc(C(=O)OCC(CC)CCCC)cc3)nc(Nc3ccc(C(=O)OCC(CC)CCCC)cc3)n2)cc1 (centres unmarked) [Ethylhexyl Triazone]	high percentage	
COc1ccc(C(=O)CC(=O)c2ccc(C(C)(C)C)cc2)cc1 [Avobenzone, 4-tert-butyl-4′-methoxy-dibenzoylmethane]	relative lack of absorption	ability to absorb radiation in the 290 to 315 nm range over time [3]: increases over time
CC1CC(OC(=O)c2ccccc2O)CC(C)(C)C1 (centres unmarked) [Homosalate, 3,3,5-trimethylcyclohexyl salicylate]	minimal to moderate	
O=S(=O)([O-])c1cc(S(=O)(=O)O)cc2[nH]c(-c3ccc(-c4nc5c(S(=O)(=O)[O-])cc(S(=O)(=O)O)cc5[nH]4)cc3)nc12.[Na+].[Na+] [Bisdisulizole disodium, disodium phenyl dibenzimidazole tetrasulfonate]	relative lack of absorption	
Nc1ccc(C(=O)OCC(O)CO)cc1 (centres unmarked) [Glyceryl Aminobenzoate, glyceryl 1-(4-aminobenzoate)]	high percentage	
Nc1ccc(C(=O)O)cc1 [Aminobenzoic acid, 4-aminobenzoic acid]	high percentage	maximum absorbance ([1]; dissolved in alcohol): 289 nm; maximum absorbance ([1]; dissolved in water): 278 nm
CCOCCOC(=O)C=Cc1ccc(OC)cc1 [Cinoxate, 2-ethoxyethyl p-methoxycinnamate]	high percentage	
COc1ccc(C=CC(=O)OCCC(C)C)cc1 [Isoamyl p-methoxycinnamate]	high percentage	
COc1ccc(C(=O)c2ccccc2)c(O)c1 [Oxybenzone, 2-hydroxy-4-methoxybenzophenone]	minimal to moderate	
CCCCC(CC)COC(=O)C(C#N)=C(c1ccccc1)c1ccccc1 (stereo not drawn) [Octocrylene, 2-ethylhexyl alpha-cyano-beta-phenylcinnamate]	minimal to moderate	

Reference: patent US9724544B2, “Vitamin D promoting sunscreen” (priority 2009, dated 2017)
